# In US8338475B2, “Anti-proliferative pharmaceutical composition” (BioCis Pharma Oy, priority 2003, dated 2012):
# Values joined by “and” are separate entries in the source; they are usually repeats but may differ in a detail not shown here. Equal values may be shown once.
# Assays:
# A2058 cells = test: Monitoring of intracellular pH (BCECF, flow cytometry), A2058 cells; format: cell-based, human
# Procedure: (§1) The cells were labelled with BCECF and placed in pH-adjusted buffer solutions with or without various concentrations of cis-UCA. Left panels, calibration of BCECF fluorescence intensity of nigericin-treated cells in high-potassium buffer as a function of buffer pH. Right panels, intracellular pH values in buffers with or without various concentrations of cis-UCA. All test buffers were adjusted to pH 7.4 (%) or pH 6.5 (+) after the addition of cis-UCA. Results were calculated using the corresponding calibration curve on the left.
# (§2) Intracellular pH in the cell lines in the presence of cis-UCA was measured with the pH-sensitive fluorescent dye 2′,7′-bis-(2-carboxyethyl)-5-(and-6)-carboxyfluorescein (BCECF, acetoxymethyl ester; Molecular Probes, Leiden, The Netherlands) by flow cytometry. Two million cells were incubated in 5 ml DMEM medium (Invitrogen), pH 7.4, containing 0.35 μM BCECF at 37° C. for 30 min, washed once in sodium phosphate buffer (50 mM NaH2PO4/Na2HPO4, 43 mM NaCl), pH 7.4, and resuspended in 0.3 ml saline. Twenty μl of the cell suspension was pipetted into flow cytometry tubes. […]
# (§3) Calibration of intracellular pH in situ was performed using the K^+/H^+ ionophore nigericin (Molecular Probes) in high-potassium buffers. […] Exact intracellular pH values were calculated from mean BCECF fluorescence intensities by reference with nigericin-clamped calibration cells. […]
# HSF (skin fibroblast) = test: Proliferation assay (CellTiter 96), HSF cells; format: cell-based, human; conditions: pH 6.5, 44 h, cis-UCA 10 mM, CPT 2 μM, 15,000 cells per 100 μl
# Text: (§4) Transformed tumour cell lines WM 266-4 and A2058 (cutaneous melanoma), HT-1080 (epithelial fibrosarcoma), HeLa (epithelial adenocarcinoma of cervix), HK293 (kidney epithelial cells) and non-transformed cell line HSF (skin fibroblast from a healthy volunteer donor) of human origin have been described earlier (Li et al. 2003). The K562 (chronic myelogenous leukemia) cells were purchased from American Type Culture Collection.
# (§5) The cells were maintained in logarithmic growth phase in IMDM medium (Invitrogen, Paisley, UK) supplemented with 10% fetal calf serum and antibiotics in a humidified incubator at +37° C., 5% CO2. The adherent cells lines were harvested for experiments with 0.25% trypsin-EDTA in PBS for 5 min and then resuspended and washed in medium. After counting of viable cells, 15,000 to 75,000 cells were transferred into flat-bottom 96-well cell culture plates in a volume of 100 or 150 μl.
# (§6) The proliferation activity of cultured cell lines was quantified in flat-bottom 96-well plates with a modified colorimetric assay based on a tetrazolium derivative (CellTiter 96 Aqueous One Solution Cell Proliferation Assay, Promega). The cells were cultured in the presence of camptothecin and/or cis-UCA for 20 to 92 h, then the proliferation reagent was added for 2 h, and the absorbance at 490 nm was measured in a plate reader. […]
# [1] = tested on: Ki67 (proliferating cells) in A2058 tumours; test: Immunohistochemistry of tumours, Ki67 staining; format: in vivo, SCID/SCID mice; conditions: tumours collected after 16 days; 30 mM cis-UCA, 1 μM CPT intratumoural
# Text: After 16 days from the first injection, all the animals were sacrificed with CO2, and the tumours were collected and fixed in formalin for further studies. In groups A, C, and D, one mouse was sacrificed before the end of the experiment because of poor development of the tumour (no measurable tumour at day 0). One animal in group B was sacrificed prematurely after it had severly scratched the tumour. Data from these animals were not included in the calculation of the tumour size results. All the removed animals were female mice. Immunohistochemical data was obtained also from the removed mice except from group B. The experiments were conducted under a protocol approved by the local ethics committee.
# Paraffin sections of the tumours were stained with haematoxylin/eosin following standard procedures for an overall picture. Ki67 was stained to detect the amount of proliferating cells. The staining procedure for the Ki67 primary antibody (Dako, Klostrup, Denmark) at 1:50 dilution and secondary antibody (StreptABComplex/HRP Duet Mouse/Rabbit, Dako) at 1:100 dilution followed the instructions provided by the manufacturer. Two sections from each tumour was examined.
# [2] = tested on: human polymorphonuclear neutrophils; conditions: extracellular pH range 6.1 to 7.0; patent application US2006035973; cited from earlier work
# cell lines = test: Proliferation assay, statements on the cell lines as a group; format: cell-based, human; conditions: all three studied transformed cell lines; 44 h; pH 6.5 (FIG. 4)
# Procedure: The cells were cultured for 44 h with or without 2 μM camptothecin (CPT) at pH 6.5 or 7.4 conditions. After a 2-h incubation with the proliferation assay reagent, the absorbance at 490 nm was recorded. Cells were cultured in a density of 15,000 cells (K562, HT-1080, HK293) or 75,000 cells (the other cells) in a volume of 150 μl.
# Three cell lines were cultured with cis-UCA and/or 1 μM camptothecin at a density of […] per well (100 μl) for 44 h in pH 6.5 medium. Blank wells with all the cis-UCA concentrations but without cells were included and their absorbance subtracted from those of the corresponding test wells.
# as §4, with “The K562 (chronic myelogenous leukemia) cells were purchased from American Type Culture Collection.” left out
# as §6
# HeLa cells = test: Monitoring of intracellular pH (BCECF, flow cytometry), HeLa cells; format: cell-based, human
# Procedure: as §1, §2, §3
# [3] = tested on: K562 (chronic myelogenous leukemia); test: Proliferation assay (CellTiter 96), K562 cells; format: cell-based, human; conditions: pH 6.5, 44 h, cis-UCA 10 mM, CPT 2 μM, 15,000 cells per 100 μl
# Text: as §4, §5, §6
# [4] = tested on: HK293 (kidney epithelial cells); test: Proliferation assay (CellTiter 96), HK293 cells; format: cell-based, human; conditions: pH 6.5, 44 h, cis-UCA 10 mM, CPT 2 μM, 15,000 cells per 100 μl
# Text: as §4, §5, §6
# [5] = extracellular pH 6.5, highest cis-UCA concentration (30 mM)
# [6] = extracellular pH 7.4, cis-UCA up to 30 mM
structure (smiles),measurement,setting,value
"O=C(O)/C=C\c1c[nH]cn1 [cis-UCA, cis-urocanic acid]",decrease of intracellular pH,A2058 cells; [5],about 0.25 pH units
same,intracellular pH with escalating concentrations,A2058 cells; [6],remained almost constant
same,Inhibition of proliferation (mean percentage inhibition ± SD compared with untreated control),HSF (skin fibroblast),41 ± 1.1%
same,Ki67+ (number of positive tumours/total analysed),[1],none of the analysed five tumours and 0/5
same,effect on the intracellular pH of neutrophils,[2],affected the intracellular pH
same,concentration at which proliferation was inhibited,cell lines,≥ 3 mM
same,decrease of intracellular pH,HeLa cells; [5],about 0.25 pH units
same,intracellular pH with escalating concentrations,HeLa cells; [6],remained almost constant
same,Inhibition of proliferation (mean percentage inhibition ± SD compared with untreated control),[3],26 ± 2.9%
same,Inhibition of proliferation (mean percentage inhibition ± SD compared with untreated control),[4],22 ± 0.1%
